Assay results as given in article PMC12316308, “Interactions of substrates and phosphinyl containing inhibitors with bacterial and human zinc proteases” (PLOS One, 2025).
Where “and” joins values, the source holds several entries; their conditions need not be identical. Equal entries are not always repeated. Where two headings read alike, the source gives them in different places.

What was measured:
[1] = target: T1, Mag-Trypsin activated MMP-9 (MMP-9(MT)) (Homo sapiens, UniProt P14780); assay: Enzyme inhibition kinetics, fluorogenic substrate ES001; type: biochemical; details: for remaining activity at 100 µM: 100 µM inhibitor; for vi/v0: Mag-Trypsin activated recombinant human MMP-9, v0 = average of vi at 10-10 to 10-8 M H2
T1 construct: made in house; host or cells: Sf9 and High Five insect cells
T1 sequence (P14780 107-707 limits assumed): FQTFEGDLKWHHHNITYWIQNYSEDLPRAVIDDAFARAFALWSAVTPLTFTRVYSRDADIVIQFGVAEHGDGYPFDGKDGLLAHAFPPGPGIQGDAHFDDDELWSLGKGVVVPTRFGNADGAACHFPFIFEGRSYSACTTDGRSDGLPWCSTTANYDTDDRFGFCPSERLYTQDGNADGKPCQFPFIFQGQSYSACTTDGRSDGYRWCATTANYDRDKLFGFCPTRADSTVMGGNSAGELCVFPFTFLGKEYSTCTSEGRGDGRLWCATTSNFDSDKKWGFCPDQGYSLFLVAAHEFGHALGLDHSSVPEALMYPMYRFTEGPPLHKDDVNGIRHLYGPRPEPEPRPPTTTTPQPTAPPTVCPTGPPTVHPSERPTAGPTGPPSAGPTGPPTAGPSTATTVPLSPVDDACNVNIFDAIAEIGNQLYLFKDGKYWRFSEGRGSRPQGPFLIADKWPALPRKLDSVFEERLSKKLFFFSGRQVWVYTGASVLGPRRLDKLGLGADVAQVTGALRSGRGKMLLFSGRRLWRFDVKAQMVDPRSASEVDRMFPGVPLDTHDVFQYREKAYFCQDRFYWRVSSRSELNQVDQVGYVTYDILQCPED

[2] = target: T2, APMA activated MMP-9 (MMP-9(A)) (Homo sapiens, UniProt P14780); assay: as above; type: biochemical; details: for remaining activity at 10 µM: 10 µM inhibitor
T2 construct: made in house; host or cells: Sf9 and High Five insect cells
T2 sequence (P14780 107-707 limits assumed): as above
Summary of the method: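 Recombinant full-length proMMP-9 expressed in insect cells was auto-activated with APMA and titrated with galardin. Activity at 0.05 nM enzyme was measured using 4.0 µM fluorogenic substrate ES001 in 100 µL 0.1 M Hepes pH 7.5 containing 10 mM CaCl2, 0.005% Brij-35 and 1.0% DMSO. Initial rates were followed at 37°C (excitation 320 nm, emission 405 nm) relative to inhibitor-free controls.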

MMP-9 = details: previously reported; cited from earlier work
MMP-14 = details: cited from earlier work
aureolysin (ALN) = target: T3, aureolysin (ALN) (Staphylococcus aureus, UniProt P81177); assay: Enzyme inhibition kinetics, fluorogenic substrate ES005; type: biochemical; details: for remaining activity at 100 µM: 100 µM inhibitor
T3 construct: purchased BioCentrum Ltd (Kraków, Poland)
T3 sequence (P81177 209-509): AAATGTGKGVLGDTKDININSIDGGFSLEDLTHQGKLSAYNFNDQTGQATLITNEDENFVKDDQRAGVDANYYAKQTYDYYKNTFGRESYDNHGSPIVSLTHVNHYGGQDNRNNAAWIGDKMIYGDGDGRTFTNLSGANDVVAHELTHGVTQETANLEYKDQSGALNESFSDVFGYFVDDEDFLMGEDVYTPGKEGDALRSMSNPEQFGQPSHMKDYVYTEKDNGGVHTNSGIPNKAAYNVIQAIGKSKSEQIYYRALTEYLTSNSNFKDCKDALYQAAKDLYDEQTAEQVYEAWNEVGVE

pseudolysin (PLN, LasB) = target: T4, pseudolysin (PLN, LasB) (Pseudomonas aeruginosa, UniProt P14756); assay: as above; type: biochemical; details: for remaining activity at 100 µM: 100 µM inhibitor
T4 construct: purchased Calbiochem (San Diego, CA, USA)
T4 sequence (P14756 198-498): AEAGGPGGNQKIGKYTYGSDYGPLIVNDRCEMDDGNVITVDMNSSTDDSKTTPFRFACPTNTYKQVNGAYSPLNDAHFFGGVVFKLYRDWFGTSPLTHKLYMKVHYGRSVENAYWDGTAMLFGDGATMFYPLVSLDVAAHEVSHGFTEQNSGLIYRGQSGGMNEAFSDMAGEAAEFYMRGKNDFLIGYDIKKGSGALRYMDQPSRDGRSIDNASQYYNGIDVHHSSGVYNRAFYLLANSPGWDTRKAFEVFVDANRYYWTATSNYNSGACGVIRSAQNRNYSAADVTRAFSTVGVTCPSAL

thermolysin (TLN) = target: T5, thermolysin (TLN) (Bacillus thermoproteolyticus, UniProt P00800); assay: as above; type: biochemical; details: for remaining activity at 10 µM: log [H2] (M) -5; for remaining activity at 0.1 µM: log [H2] (M) -7; for remaining activity at 0.01 µM: log [H2] (M) -8; for remaining activity at 0.0001 µM: log [H2] (M) -10; for vi/v0 avg (time dependent inhibition, Supplementary Figure S8): Thermolysin, inhibitor 10 µM
T5 construct: purchased Calbiochem (San Diego, CA, USA)
T5 sequence (P00800 233-548): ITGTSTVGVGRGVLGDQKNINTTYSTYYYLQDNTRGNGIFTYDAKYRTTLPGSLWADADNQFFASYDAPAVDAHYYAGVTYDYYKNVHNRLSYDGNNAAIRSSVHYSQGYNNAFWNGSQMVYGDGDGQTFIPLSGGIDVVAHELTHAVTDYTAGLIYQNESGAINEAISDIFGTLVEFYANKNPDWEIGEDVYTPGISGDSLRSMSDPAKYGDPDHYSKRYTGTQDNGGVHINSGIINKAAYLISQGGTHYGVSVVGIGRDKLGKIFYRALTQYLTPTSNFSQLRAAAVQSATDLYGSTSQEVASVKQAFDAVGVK
Summary of the method: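 Initial rates were read at 37 °C (ex 320/em 405 nm) with 4.0 µM substrate, ES001 for MMP-14 (1.0 nM) and ES005 for PLN (0.5 nM), TLN (0.21 nM), ALN (1.4 nM), in pH 7.5 Hepes, 10 mM CaCl2, 0.005% Brij-35, 1.0% DMSO. Enzymes were preincubated 30 min at room temperature or not; IC50 fitted, Ki from IC50 using Km.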

[3] = target: T6, human MT1-MMP/MMP-14 (catalytic domain) (Homo sapiens, UniProt P50281); assay: Enzyme inhibition kinetics, fluorogenic substrate ES001; type: biochemical; details: for remaining activity at 10 µM: 10 µM inhibitor
T6 construct: human MT1-MMP/MMP-14 (catalytic domain); purchased Calbiochem (San Diego, CA, USA)

[4] = TLN, log [H2] (M) -4, replicates
[5] = TLN, replicates, read-out: vi/v0 before correction of kurve
[6] = TLN, replicates, read-out: vi/v0 corrected (v0 is the average of log -10 to log -7)

## NC(=O)C(Cc1c[nH]c2ccccc12)NC(=O)C(CCCc1ccccc1)CP(=O)(O)C(Cc1ccccc1)NC(=O)OCc1ccccc1 (centres unmarked) [H-2]
[1]; 0.25 h, read-out: vi/v0 avg, rMMP-9 (Mag-trypsin activated), 15 min pre incubation
  remaining activity at 100 µM: 1.53%
[1]; 0.5 h, read-out: vi/v0 (single replicate), rMMP-9 (Mag-trypsin activated), 30 min pre incubation
  remaining activity at 100 µM: 1.66%
[1]; 0.5 h, read-out: vi/v0 avg, rMMP-9 (Mag-trypsin activated), 30 min pre incubation
  remaining activity at 100 µM: 1.41%
[1]; MMP-9(MT), 100 μM compound, in words
  inhibitory effect on enzymatic activity: strong inhibition
[1]; MMP-9(MT), substrate ES001 4.0 µM, 0.1 M Hepes pH 7.5, 37°C, 1.0% DMSO, Ki from IC50 (Eqn. 3), read-out: Ki ± s.d. (converted)
  Ki: 530 nM
[1]; Log [H2] (M) -4
  vi/v0: 0.01838 and 0.0265 and 0.01864 and 0.01609
[1]; Log [H2] (M) -5
  vi/v0: 0.1569 and 0.1424 and 0.1393 and 0.1595
[1]; Log [H2] (M) -6
  vi/v0: 0.5598 and 0.5376 and 0.5583 and 0.5906
[1]; Log [H2] (M) -7
  vi/v0: 0.8621 and 0.7854 and 0.9893
[1]; Log [H2] (M) -8
  vi/v0: 0.9994 and 0.9899 and 0.9629
[1]; Log [H2] (M) -9
  vi/v0: 0.9775 and 0.9856 and 0.9448
[1]; Log [H2] (M) -10
  vi/v0: 1.053 and 1.045 and 1.043
[1]; rMMP-9 (Mag-trypsin activated), inhibitor 100 μM, average over 0, 15, 30 min preincubation
  vi/v0 Av (bar diagram figure 7): 0.01565
[1]; rMMP-9 (Mag-trypsin activated), inhibitor 100 μM, preincubation 0 min
  vi/v0 (relative enzyme activity with inhibitor), single determinations: 0.01777 and 0.01586 and 0.01778 and 0.01563
[1]; rMMP-9 (Mag-trypsin activated), inhibitor 100 μM, preincubation 30 min
  vi/v0 (relative enzyme activity with inhibitor), single determinations: 0.01655 and 0.01171
[1]; read-out: vi/v0 (single replicate), rMMP-9 (Mag-trypsin activated), no preincubation
  remaining activity at 100 µM: 1.78%
[1]; read-out: vi/v0 avg, rMMP-9 (Mag-trypsin activated), no preincubation
  remaining activity at 100 µM: 1.68%
[2]; 0.25 h, read-out: vi/v0 (single replicate), rMMP-9 (APMA activated), 15 min pre incubation
  remaining activity at 10 µM: 2.55%
[2]; 0.25 h, read-out: vi/v0 avg, rMMP-9 (APMA activated), 15 min pre incubation
  remaining activity at 10 µM: 2.28%
[2]; 0.5 h, read-out: vi/v0 (single replicate), rMMP-9 (APMA activated), 30 min pre incubation
  remaining activity at 10 µM: 1.79%
[2]; 0.5 h, read-out: vi/v0 avg, rMMP-9 (APMA activated), 30 min pre incubation
  remaining activity at 10 µM: 1.99%
[2]; MMP-9(A), 100 μM compound, in words
  inhibitory effect on enzymatic activity: strong inhibition
[2]; MMP-9(A), substrate ES001 4.0 µM, 0.1 M Hepes pH 7.5, 37°C, 1.0% DMSO, Ki from IC50 (Eqn. 3), read-out: Ki ± s.d. (converted)
  Ki: 560 nM
[2]; rMMP-9 (APMA activated), inhibitor 10 μM, average over 0, 15, 30 min preincubation
  vi/v0 Av (bar diagram figure 7): 0.02111
[2]; rMMP-9 (APMA activated), inhibitor 10 μM, preincubation 0 min
  vi/v0 (relative enzyme activity with inhibitor), single determinations: 0.0222 and 0.02292 and 0.01955 and 0.01797
[2]; rMMP-9 (APMA activated), inhibitor 10 μM, preincubation 15 min
  vi/v0 (relative enzyme activity with inhibitor), single determinations: 0.02548 and 0.02093 and 0.0213 and 0.0234
[2]; rMMP-9 (APMA activated), inhibitor 10 μM, preincubation 30 min
  vi/v0 (relative enzyme activity with inhibitor), single determinations: 0.01792 and 0.01966 and 0.0206 and 0.02139
[2]; read-out: vi/v0 (single replicate), rMMP-9 (APMA activated), no preincubation
  remaining activity at 10 µM: 2.22%
[2]; read-out: vi/v0 avg, rMMP-9 (APMA activated), no preincubation
  remaining activity at 10 µM: 2.07%
MMP-9
  Ki: 10 nM
MMP-14; RRS enantiomer
  Ki: 386 nM
MMP-14; RSS enantiomer
  Ki: 90 nM
MMP-14; previously reported
  Ki: 40 nM
Aureolysin (ALN)
  Ki: 80000 nM
Aureolysin (ALN); 0.25 h, read-out: vi/v0 (single replicate), Aureolysin, 15 min pre incubation
  remaining activity at 100 µM: 45.5%
Aureolysin (ALN); 0.25 h, read-out: vi/v0 avg, Aureolysin, 15 min pre incubation
  remaining activity at 100 µM: 41.5%
Aureolysin (ALN); 0.5 h, read-out: vi/v0 (single replicate), Aureolysin, 30 min pre incubation
  remaining activity at 100 µM: 39.1%
Aureolysin (ALN); 0.5 h, read-out: vi/v0 avg, Aureolysin, 30 min pre incubation
  remaining activity at 100 µM: 39.4%
Aureolysin (ALN); ALN, 100 μM compound, in words
  inhibitory effect on enzymatic activity: strong inhibition
Aureolysin (ALN); Aureolysin (ALN), inhibitor 100 μM, average over 0, 15, 30 min preincubation
  vi/v0 Av (bar diagram figure 7): 0.4117
Aureolysin (ALN); Aureolysin (ALN), inhibitor 100 μM, preincubation 0 min
  vi/v0 (relative enzyme activity with inhibitor), single determinations: 0.4244 and 0.4426 and 0.4113 and 0.3677
Aureolysin (ALN); Aureolysin (ALN), inhibitor 100 μM, preincubation 15 min
  vi/v0 (relative enzyme activity with inhibitor), single determinations: 0.4549 and 0.4344 and 0.3957 and 0.4144
Aureolysin (ALN); Aureolysin (ALN), inhibitor 100 μM, preincubation 30 min
  vi/v0 (relative enzyme activity with inhibitor), single determinations: 0.3912 and 0.406 and 0.3859
Aureolysin (ALN); read-out: vi/v0 (single replicate), Aureolysin, no preincubation
  remaining activity at 100 µM: 42.4%
Aureolysin (ALN); read-out: vi/v0 avg, Aureolysin, no preincubation
  remaining activity at 100 µM: 41.1%
Pseudolysin (PLN, LasB)
  Ki: 40000 nM
Pseudolysin (PLN, LasB); 0.25 h, read-out: vi/v0 (single replicate), Pseudolysin, 15 min pre incubation
  remaining activity at 100 µM: 29.3%
Pseudolysin (PLN, LasB); 0.25 h, read-out: vi/v0 avg, Pseudolysin, 15 min pre incubation
  remaining activity at 100 µM: 29.7%
Pseudolysin (PLN, LasB); 0.5 h, read-out: vi/v0 avg, Pseudolysin, 30 min pre incubation
  remaining activity at 100 µM: 28.3%
Pseudolysin (PLN, LasB); PLN, 100 μM compound, in words
  inhibitory effect on enzymatic activity: strong inhibition
Pseudolysin (PLN, LasB); Pseudolysin (PLN), inhibitor 100 μM, average over 0, 15, 30 min preincubation
  vi/v0 Av (bar diagram figure 7): 0.3295
Pseudolysin (PLN, LasB); Pseudolysin (PLN), inhibitor 100 μM, preincubation 0 min
  vi/v0 (relative enzyme activity with inhibitor), single determinations: 0.3705 and 0.2811 and 0.5391
Pseudolysin (PLN, LasB); Pseudolysin (PLN), inhibitor 100 μM, preincubation 15 min
  vi/v0 (relative enzyme activity with inhibitor), single determinations: 0.293 and 0.3019
Pseudolysin (PLN, LasB); read-out: vi/v0 avg, Pseudolysin, no preincubation
  remaining activity at 100 µM: 39.7%
Thermolysin (TLN); TLN, 100 μM compound, in words
  inhibitory effect on enzymatic activity: strong inhibition
Thermolysin (TLN); [4]
  vi/v0 before correction of kurve: 0
  vi/v0 corrected (v0 is the average of log -10 to log -7): 0
Thermolysin (TLN); TLN, log [H2] (M) -4, replicates, read-out: vi/v0 before correction of kurve
  remaining activity at 100 µM: 0%
Thermolysin (TLN); TLN, log [H2] (M) -4, replicates, read-out: vi/v0 corrected (v0 is the average of log -10 to log -7)
  remaining activity at 100 µM: 0%
Thermolysin (TLN); [5]
  remaining activity at 10 µM: 28.2%
  remaining activity at 0.1 µM: 99.7%
  remaining activity at 0.01 µM: 102%
  remaining activity at 0.0001 µM: 95%
Thermolysin (TLN); [6]
  remaining activity at 10 µM: 28.1%
  remaining activity at 0.1 µM: 99.5%
  remaining activity at 0.01 µM: 102%
  remaining activity at 0.0001 µM: 94.8%
Thermolysin (TLN); Thermolysin (TLN), inhibitor 10 μM, average over 0, 15, 30 min preincubation
  vi/v0 Av (bar diagram figure 7): 0.2888
Thermolysin (TLN); Thermolysin (TLN), inhibitor 10 μM, preincubation 0 min
  vi/v0 (relative enzyme activity with inhibitor), single determinations: 0.2407 and 0.2992 and 0.3158 and 0.3218
Thermolysin (TLN); 15 min pre incubation
  vi/v0 avg (time dependent inhibition, Supplementary Figure S8): 0.1753
Thermolysin (TLN); 30 min pre incubation
  vi/v0 avg (time dependent inhibition, Supplementary Figure S8): 0.294
Thermolysin (TLN); No preincubation
  vi/v0 avg (time dependent inhibition, Supplementary Figure S8): 0.2944
Thermolysin (TLN); read-out: Ki ± s.d.
  Ki: 2500 nM
[3]; 0.25 h, MMP-14, 15 min pre incubation, read-out: vi/v0 (single replicate)
  remaining activity at 10 µM: 16.5%
[3]; 0.25 h, MMP-14, 15 min pre incubation, read-out: vi/v0 avg
  remaining activity at 10 µM: 16%
[3]; 0.5 h, MMP-14, 30 min pre incubation, read-out: vi/v0 (single replicate)
  remaining activity at 10 µM: 14.6%
[3]; 0.5 h, MMP-14, 30 min pre incubation, read-out: vi/v0 avg
  remaining activity at 10 µM: 14.7%
[3]; MMP-14, no preincubation, read-out: vi/v0 (single replicate)
  remaining activity at 10 µM: 14.5%
[3]; MMP-14, no preincubation, read-out: vi/v0 avg
  remaining activity at 10 µM: 17.8%
[3]; MMP-14, 100 μM compound, in words
  inhibitory effect on enzymatic activity: strong inhibition
[3]; MMP-14, inhibitor 10 μM, average over 0, 15, 30 min preincubation
  vi/v0 Av (bar diagram figure 7): 0.1603
[3]; MMP-14, inhibitor 10 μM, preincubation 0 min
  vi/v0 (relative enzyme activity with inhibitor), single determinations: 0.1454 and 0.1797 and 0.2098
[3]; read-out: Ki ± s.d. (converted)
  Ki: 3000 nM
